The source of these data is ChEMBL document CHEMBL1130485, “Novel low molecular renin inhibitors which show good oral blood pressure lowering effects in marmosets” (Bioorg Med Chem Lett, 1997).

Test [1] deals with T1, Angiotensin-converting enzyme (Homo sapiens, UniProt P12821). Kind of test: Inhibitory activity against ACE human, expressed as IC50.
In the next test the target is T2, Cathepsin D (Bos taurus, UniProt P80209).
T2 sequence (P80209 whole entry): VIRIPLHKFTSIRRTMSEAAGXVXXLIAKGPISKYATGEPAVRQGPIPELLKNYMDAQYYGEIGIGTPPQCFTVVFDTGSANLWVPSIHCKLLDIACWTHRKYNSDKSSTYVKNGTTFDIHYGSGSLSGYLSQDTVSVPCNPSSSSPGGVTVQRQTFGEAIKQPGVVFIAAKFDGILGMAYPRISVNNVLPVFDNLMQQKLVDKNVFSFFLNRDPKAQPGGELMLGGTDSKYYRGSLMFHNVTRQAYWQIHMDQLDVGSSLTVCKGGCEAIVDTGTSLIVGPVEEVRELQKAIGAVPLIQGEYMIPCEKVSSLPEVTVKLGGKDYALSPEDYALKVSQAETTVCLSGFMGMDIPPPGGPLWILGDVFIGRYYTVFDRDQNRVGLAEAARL
Briefly: Inhibitory activity against cathepsin D (bovine), expressed as IC50.

The next test addresses Pepsin A (Sus scrofa, UniProt P00791). Briefly: In vitro inhibitory effect was evaluated against pepsin, Expressed as IC50.
The target of the next test is T3, Renin (Homo sapiens, UniProt P00797).
T3 sequence (P00797 whole entry): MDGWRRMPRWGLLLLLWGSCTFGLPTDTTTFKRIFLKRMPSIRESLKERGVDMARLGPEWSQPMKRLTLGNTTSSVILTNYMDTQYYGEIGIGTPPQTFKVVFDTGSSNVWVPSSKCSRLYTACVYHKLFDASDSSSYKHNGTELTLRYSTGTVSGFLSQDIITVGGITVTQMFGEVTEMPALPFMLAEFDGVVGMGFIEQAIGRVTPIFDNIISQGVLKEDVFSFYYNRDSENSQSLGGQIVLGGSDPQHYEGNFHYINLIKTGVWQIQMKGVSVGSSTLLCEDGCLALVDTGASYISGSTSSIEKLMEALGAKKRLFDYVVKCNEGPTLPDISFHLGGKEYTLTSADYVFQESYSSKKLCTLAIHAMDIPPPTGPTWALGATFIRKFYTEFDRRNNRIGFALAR
Kind of test: In vitro renin inhibitory effect was evaluated for plasma renin activity (PRA) of human plasma, Expressed as IC50. It counts as cell-free.

In test [2] the target is T1, Angiotensin-converting enzyme. Briefly: Percent Inhibitory activity against angiotensin-converting enzyme (ACE) human at the concentration of 100000 nM.
Test [3] in a line: In vivo blood pressure lowering effects in salt depleted conscious marmosets was determined when a dose of 10mg/Kg, po. at 0.5 hr. In kind it is functional, Callitrichinae.
Test [4] in a line: In vivo blood pressure lowering effects in salt depleted conscious marmosets was determined when a dose of 10mg/Kg, po. at 1 hr. It counts as functional, Callitrichinae.
Test [5] can be described thus: In vivo blood pressure lowering effects in salt depleted conscious marmosets was determined when a dose of 10mg/Kg, po. at 3h. It counts as functional, Callitrichinae.
The next test concerns the target Pepsin A (Sus scrofa) (UniProt P00791). Kind of test: Percent Inhibitory activity against pepsin at the concentration of 100000 nM.
Test [6] deals with T4, Renin (Rattus norvegicus) (UniProt P08424).
T4 sequence (whole entry): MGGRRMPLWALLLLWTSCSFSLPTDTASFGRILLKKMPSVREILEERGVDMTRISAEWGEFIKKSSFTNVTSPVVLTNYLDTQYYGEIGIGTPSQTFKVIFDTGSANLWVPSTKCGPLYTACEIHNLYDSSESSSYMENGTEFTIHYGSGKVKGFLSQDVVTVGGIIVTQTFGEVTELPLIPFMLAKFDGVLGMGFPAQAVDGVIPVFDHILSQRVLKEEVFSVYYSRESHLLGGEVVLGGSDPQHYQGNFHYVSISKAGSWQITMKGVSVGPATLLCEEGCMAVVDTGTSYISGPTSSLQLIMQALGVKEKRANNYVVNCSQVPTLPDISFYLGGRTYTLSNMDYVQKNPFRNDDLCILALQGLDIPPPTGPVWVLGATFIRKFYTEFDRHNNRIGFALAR
Briefly: In vitro percent Inhibitory activity against rat plasma renin at the concentration of 100000 nM. In kind it is cell-free.

Structures are written as SMILES.

T1 sequence (P12821 whole entry): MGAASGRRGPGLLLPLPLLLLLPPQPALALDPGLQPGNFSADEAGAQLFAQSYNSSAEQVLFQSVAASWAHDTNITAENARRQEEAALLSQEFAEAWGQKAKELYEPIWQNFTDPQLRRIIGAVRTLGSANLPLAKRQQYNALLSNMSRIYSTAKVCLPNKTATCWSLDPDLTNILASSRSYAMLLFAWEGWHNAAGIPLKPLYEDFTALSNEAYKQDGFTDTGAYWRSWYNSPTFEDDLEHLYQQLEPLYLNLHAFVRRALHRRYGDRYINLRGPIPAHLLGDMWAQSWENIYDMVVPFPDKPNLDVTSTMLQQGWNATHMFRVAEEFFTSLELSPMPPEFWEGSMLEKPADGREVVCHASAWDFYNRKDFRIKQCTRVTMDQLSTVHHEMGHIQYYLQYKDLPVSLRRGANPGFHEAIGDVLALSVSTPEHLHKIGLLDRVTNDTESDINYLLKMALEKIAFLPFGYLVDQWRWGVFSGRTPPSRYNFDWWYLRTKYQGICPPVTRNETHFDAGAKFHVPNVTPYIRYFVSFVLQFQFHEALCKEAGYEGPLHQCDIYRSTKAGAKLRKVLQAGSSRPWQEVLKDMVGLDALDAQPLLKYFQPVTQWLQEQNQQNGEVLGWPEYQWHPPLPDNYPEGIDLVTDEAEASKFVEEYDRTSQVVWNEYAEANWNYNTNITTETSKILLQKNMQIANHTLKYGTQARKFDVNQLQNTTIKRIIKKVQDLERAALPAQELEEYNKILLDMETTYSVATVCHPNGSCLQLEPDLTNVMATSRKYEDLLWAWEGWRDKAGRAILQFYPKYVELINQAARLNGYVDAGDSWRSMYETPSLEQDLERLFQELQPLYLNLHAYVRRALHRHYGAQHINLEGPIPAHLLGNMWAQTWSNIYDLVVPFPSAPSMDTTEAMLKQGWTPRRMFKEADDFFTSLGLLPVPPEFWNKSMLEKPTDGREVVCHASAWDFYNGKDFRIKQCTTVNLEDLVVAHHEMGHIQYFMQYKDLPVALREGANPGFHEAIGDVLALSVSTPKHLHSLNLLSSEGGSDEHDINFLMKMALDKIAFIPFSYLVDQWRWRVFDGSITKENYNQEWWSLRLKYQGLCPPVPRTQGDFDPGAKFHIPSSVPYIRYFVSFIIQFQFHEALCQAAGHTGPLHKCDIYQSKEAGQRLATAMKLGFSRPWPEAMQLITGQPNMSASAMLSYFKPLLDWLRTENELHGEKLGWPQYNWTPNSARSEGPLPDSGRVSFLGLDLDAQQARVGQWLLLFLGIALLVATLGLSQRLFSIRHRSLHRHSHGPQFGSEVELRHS
Pepsin A (Sus scrofa), sequence (P00791 60-385 limits assumed): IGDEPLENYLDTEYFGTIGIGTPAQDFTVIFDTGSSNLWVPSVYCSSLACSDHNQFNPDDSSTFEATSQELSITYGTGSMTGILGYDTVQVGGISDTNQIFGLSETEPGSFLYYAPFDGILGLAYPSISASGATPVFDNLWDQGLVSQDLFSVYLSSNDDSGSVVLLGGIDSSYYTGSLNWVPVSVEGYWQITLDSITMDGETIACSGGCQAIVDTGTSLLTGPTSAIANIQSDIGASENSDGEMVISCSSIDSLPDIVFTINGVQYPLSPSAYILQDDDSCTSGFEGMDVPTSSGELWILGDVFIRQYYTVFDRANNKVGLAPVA
Pepsin A, sequence (P00791 whole entry): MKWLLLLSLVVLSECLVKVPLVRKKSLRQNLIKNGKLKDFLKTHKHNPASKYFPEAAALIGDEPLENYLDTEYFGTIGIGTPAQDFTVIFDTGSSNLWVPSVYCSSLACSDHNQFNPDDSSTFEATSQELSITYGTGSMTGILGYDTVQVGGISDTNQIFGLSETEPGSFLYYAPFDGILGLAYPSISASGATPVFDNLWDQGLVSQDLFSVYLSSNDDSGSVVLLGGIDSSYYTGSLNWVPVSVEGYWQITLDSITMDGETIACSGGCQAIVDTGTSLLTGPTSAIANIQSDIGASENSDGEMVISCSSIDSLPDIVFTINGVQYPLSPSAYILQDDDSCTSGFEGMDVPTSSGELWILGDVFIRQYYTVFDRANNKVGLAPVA

`CC(C)[C@@H](O)C[C@H](O)[C@H](CC1CCCCC1)NC(=O)[C@H](Cc1cnc[nH]1)NC(=O)c1cc2ccccc2[nH]1`: the IC50 (in [1]; against Cathepsin D; against Pepsin A) was greater than 100000 nM throughout.
For the molecule `CC(=O)n1c(C(=O)N[C@@H](Cc2cnc[nH]2)C(=O)N[C@@H](CC2CCCCC2)[C@@H](O)C[C@H](O)C(C)C)cc2ccccc21`, on Renin, 340 nM corresponded to half-maximal inhibition (IC50).
The same measure, in the same setting: then `CC(C)[C@@H](O)C[C@H](O)[C@H](CC1CCCCC1)NC(=O)[C@H](Cc1c[nH]cn1)NC(=O)c1ccc[nH]1`, with 3000 nM.
Consider `CC(C)[C@@H](O)C[C@H](O)[C@H](CC1CCCCC1)NC(=O)[C@H](Cc1c[nH]cn1)NC(=O)c1cc2ccccc2[nH]1`, for which the figures for the inhibition (in test [2]; against Pepsin A (Sus scrofa); in test [6]) were 6%, 5.6% and 41.1%, respectively. The “Delta SBP” value is listed as -12 mmHg in [3], -15 mmHg in test [4] and -13 mmHg in [5].
Consider `CC(C)[C@@H](O)C[C@H](O)[C@H](CC1CCCCC1)NC(=O)[C@H](Cc1cnc[nH]1)NC(=O)c1cc2cccnc2[nH]1`, for which the IC50 (as a rule, the concentration that inhibits the measured activity by half) against Renin turned out to be 800 nM.
`CC(C)[C@@H](O)C[C@H](O)[C@H](CC1CCCCC1)NC(=O)[C@H](Cc1c[nH]cn1)NC(=O)c1cc2ccccc2cn1` displayed an IC50 at Renin of 790 nM.
Same read-out and setting: the figure for `CC(C)[C@@H](O)C[C@H](O)[C@H](CC1CCCCC1)NC(=O)[C@H](Cc1cnc[nH]1)NC(=O)[C@@H]1Cc2ccccc2CN1` is 420 nM; for `CC(C)[C@@H](O)C[C@H](O)[C@H](CC1CCCCC1)NC(=O)[C@H](Cc1cnc[nH]1)NC(=O)c1cc2ccccc2s1` it is 8200 nM.
Consider `CC(C)[C@@H](O)C[C@H](O)[C@H](CC1CCCCC1)NC(=O)[C@H](Cc1c[nH]cn1)NC(=O)c1cc2ccccc2c(O)n1`, for which the “Delta SBP” value in [3] was -5 mmHg; in [4], 1 mmHg; in test [5] it was 2 mmHg. This molecule also came in with an IC50 against Renin of 48 nM.
`CC(C)[C@@H](O)C[C@H](O)[C@H](CC1CCCCC1)NC(=O)[C@H](Cc1c[nH]cn1)NC(=O)c1cc2ccccc2o1`: it took 140 nM to reach half-maximal inhibition against Renin (IC50).
The same measure, in the same setting: the figure for `CC(C)[C@@H](O)C[C@H](O)[C@H](CC1CCCCC1)NC(=O)[C@H](Cc1cnc[nH]1)N(C)C(=O)[C@H](Cc1ccccc1)NC(=O)N1CCC(O)CC1` is 0.68 nM.
The same measure, in the same setting: then `CC(C)[C@@H](O)C[C@H](O)[C@H](CC1CCCCC1)NC(=O)[C@H](Cc1cnc[nH]1)NC(=O)c1cc2cc(O)ccc2[nH]1`, with 600 nM.
Turning to `CC(C)[C@@H](O)C[C@H](O)[C@H](CC1CCCCC1)NC(=O)[C@H](Cc1c[nH]cn1)NC(=O)c1nc2ccccc2[nH]1`, the “Delta SBP” value in test [3] is given as -9 mmHg; in test [4] it was -13 mmHg; in test [5], -7 mmHg. The molecule also displayed an IC50 against Renin of 13 nM.
`CC(C)[C@@H](O)C[C@H](O)[C@H](CC1CCCCC1)NC(=O)[C@H](Cc1cnc[nH]1)NC(=O)C1Cc2ccccc2N1` (stereo in doubt) had an IC50 on Renin of 4400 nM.
Turning to `CC(C)[C@@H](O)C[C@H](O)[C@H](CC1CCCCC1)NC(=O)[C@H](Cc1c[nH]cn1)NC(=O)c1cc2cc(F)ccc2[nH]1`, the entries for the “Delta SBP” value in [3], in test [4] and in [5] were -18 mmHg, -21 mmHg and -12 mmHg, respectively. Also, the IC50 on Renin was 46 nM.
In the case of `CC(C)[C@@H](O)C[C@H](O)[C@H](CC1CCCCC1)NC(=O)[C@H](Cc1c[nH]cn1)NC(=O)c1cc2cc(Cl)ccc2[nH]1`, the midpoint of inhibition on Renin, the IC50, lay at 260 nM.
For `CC(C)[C@@H](O)C[C@H](O)[C@H](CC1CCCCC1)NC(=O)[C@H](Cc1cnc[nH]1)NC(=O)C1Cc2ccccc2N1` (stereo in doubt; 4), half-maximal inhibition on Renin (IC50) was put at 880 nM.
